# Experimental data as given in article PMC7327383, “The affinity and selectivity of α‐adrenoceptor antagonists, antidepressants, and antipsychotics for the human α1A, α1B, and α1D‐adrenoceptors” (Pharmacology Research & Perspectives, 2020).
# Where two headings read alike, the source gives them in different places.
# Assays:
# human α1A-adrenoceptor = target: T1, human α1A-adrenoceptor (Homo sapiens, UniProt P35348); test: [3H]prazosin whole-cell competition binding, CHO-α1A cells; conditions: for Kd: read-out: Log KD α1A (converted); for selectivity α1A vs 1D / selectivity α1A vs α1B: ratio, 1 = no selectivity for a subtype over another
# T1 construct: CHO cells stably expressing either the full‐length human α1A, α1B, or α1D‐adrenoceptor
# T1 sequence (P35348 1-466): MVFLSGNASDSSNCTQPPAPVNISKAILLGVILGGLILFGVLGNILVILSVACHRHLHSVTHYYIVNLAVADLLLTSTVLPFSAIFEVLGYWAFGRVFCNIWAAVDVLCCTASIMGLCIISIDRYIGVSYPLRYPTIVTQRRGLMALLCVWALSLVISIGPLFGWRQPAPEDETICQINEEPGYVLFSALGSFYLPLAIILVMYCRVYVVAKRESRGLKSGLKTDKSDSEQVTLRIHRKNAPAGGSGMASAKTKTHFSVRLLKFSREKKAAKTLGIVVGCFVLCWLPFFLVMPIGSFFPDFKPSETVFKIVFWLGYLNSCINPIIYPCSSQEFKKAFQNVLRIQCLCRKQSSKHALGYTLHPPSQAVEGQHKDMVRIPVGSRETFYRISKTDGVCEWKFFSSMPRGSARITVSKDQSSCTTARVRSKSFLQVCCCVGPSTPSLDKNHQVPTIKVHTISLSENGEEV
# [1] = target: T2, full-length human α1D-adrenoceptor (Homo sapiens, UniProt P25100); test: [3H]prazosin whole-cell competition binding, CHO-α1D cells; conditions: for Selectivity ratio α1B vs α1D / Selectivity ratio α1A vs α1D: ratio of KD values, higher α1D affinity (site 1 KD); for Log KD α1D site 1: high-affinity component of two-component curve; for Log KD α1D site 2: low-affinity component of two-component curve
# T2 sequence (P25100 1-572): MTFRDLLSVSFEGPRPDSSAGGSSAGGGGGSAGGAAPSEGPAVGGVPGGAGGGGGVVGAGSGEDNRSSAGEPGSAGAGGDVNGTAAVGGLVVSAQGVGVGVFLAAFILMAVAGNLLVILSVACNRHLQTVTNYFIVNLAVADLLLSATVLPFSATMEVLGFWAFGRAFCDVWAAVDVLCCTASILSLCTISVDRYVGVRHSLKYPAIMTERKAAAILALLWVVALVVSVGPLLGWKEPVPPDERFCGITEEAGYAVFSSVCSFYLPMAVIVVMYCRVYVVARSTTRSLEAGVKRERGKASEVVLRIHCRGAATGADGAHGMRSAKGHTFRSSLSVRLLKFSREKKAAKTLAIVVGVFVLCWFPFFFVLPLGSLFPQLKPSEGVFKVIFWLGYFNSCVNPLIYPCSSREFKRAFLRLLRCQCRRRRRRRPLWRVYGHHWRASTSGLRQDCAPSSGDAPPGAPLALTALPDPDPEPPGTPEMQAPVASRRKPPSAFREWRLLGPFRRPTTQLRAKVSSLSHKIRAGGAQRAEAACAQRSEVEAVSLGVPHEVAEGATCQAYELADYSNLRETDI
# human α1B-adrenoceptor = target: T3, human α1B-adrenoceptor (Homo sapiens, UniProt P35368); test: [3H]prazosin whole-cell competition binding, CHO-α1B cells; conditions: for selectivity α1B vs α1D: ratio, 1 = no selectivity for a subtype over another; for Kd: read-out: Log KD α1B (converted)
# T3 construct: CHO cells stably expressing either the full‐length human α1A, α1B, or α1D‐adrenoceptor
# T3 sequence (P35368 1-520): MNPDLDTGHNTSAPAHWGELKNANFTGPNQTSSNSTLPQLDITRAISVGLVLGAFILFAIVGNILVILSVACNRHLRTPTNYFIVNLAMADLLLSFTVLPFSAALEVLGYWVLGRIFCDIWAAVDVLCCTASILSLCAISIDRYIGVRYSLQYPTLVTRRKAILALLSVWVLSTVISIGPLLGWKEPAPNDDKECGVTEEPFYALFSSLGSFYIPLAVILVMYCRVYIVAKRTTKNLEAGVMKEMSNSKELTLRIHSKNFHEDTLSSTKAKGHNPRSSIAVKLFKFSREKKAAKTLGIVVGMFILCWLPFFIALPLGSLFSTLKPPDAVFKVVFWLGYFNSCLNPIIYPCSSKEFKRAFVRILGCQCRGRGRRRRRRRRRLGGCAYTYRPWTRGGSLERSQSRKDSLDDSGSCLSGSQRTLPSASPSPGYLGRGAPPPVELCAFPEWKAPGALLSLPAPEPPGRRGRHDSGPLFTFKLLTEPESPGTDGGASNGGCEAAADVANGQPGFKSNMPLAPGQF
# [2] = ratio of KD values, higher α1A affinity, 1.0 under vs = none
# [3] = ratio of KD values, printed under α1A = higher α1A affinity, 1.0 under vs = none
# [4] = single-component inhibition curve, given as log KD (negative), mean ± SE mean
# [5] = Log KD α1D (apparent), app: top concentration inhibited most but not all specific binding, curve extrapolated
# [6] = selectivity ratio, 1 = no selectivity for a given receptor subtype over another
# [7] = ratio of KD values, higher α1B affinity, 1.0 under vs = none
# [8] = percentage of inhibition through first component, control
# [9] = Log KD α1D, single-component inhibition curve, given as log KD (negative), mean ± SE mean
# [10] = Log KD α1D site 1, high-affinity component of two-component curve, control, used for selectivity
# [11] = two-component inhibition curve, proportion of site 1
smiles,measurement,setting,value
CC(C)NCC(O)COc1cccc2[nH]c3ccccc3c12 (stereo not shown) [Carazolol],Selectivity ratio α1A vs α1D,human α1A-adrenoceptor; [2],34 fold
same,Selectivity ratio α1A vs α1B,human α1A-adrenoceptor; [3],78 fold
same,Kd,human α1A-adrenoceptor; [4],269 nM
same,Kd,[1]; [5],9120 nM
same,Selectivity ratio α1B vs α1D,[1],2.3 fold
same,selectivity α1B vs α1D,human α1B-adrenoceptor,2.3
same,Kd,human α1B-adrenoceptor; [4],20900 nM
CNCCCN1c2ccccc2CCc2ccc(Cl)cc21 [Norclomipramine],Selectivity ratio α1A vs α1D,human α1A-adrenoceptor; [2],48 fold
same,Selectivity ratio α1A vs α1B,human α1A-adrenoceptor; [3],48 fold
same,selectivity α1A vs 1D,human α1A-adrenoceptor,48
same,selectivity α1A vs α1B,human α1A-adrenoceptor,48
same,selectivities α1A vs α1B,human α1A-adrenoceptor; [6],48
same,selectivities α1A vs α1D,human α1A-adrenoceptor; [6],48
same,Log KD α1A,human α1A-adrenoceptor; [4],−7.52 ± 0.08
same,Log KD α1D,[1]; [4],−5.84 ± 0.06
same,Selectivity ratio α1B vs α1D,human α1B-adrenoceptor; [7],1.0 fold
same,Log KD α1B,human α1B-adrenoceptor; [4],−5.84 ± 0.04
CN1CC[C@]2(CCN3CCc4c(oc5ccccc45)[C@@H]3C2)N(C)C1=O.Cl [MK‐912],Selectivity ratio α1A vs α1B,human α1A-adrenoceptor; [3],20 fold
same,Log KD α1A,human α1A-adrenoceptor; [4],−6.76 ± 0.03
same,Log KD α1D site 1,"[1]; control, used for selectivity",−7.30 ± 0.16
same,Log KD α1D site 2,[1]; control,−5.50 ± 0.25
same,% site 1 α1D,[1]; [8],61.2 ± 5.5% site 1
same,Selectivity ratio α1A vs α1D,[1],3.5 fold
same,Selectivity ratio α1B vs α1D,[1],69 fold
same,Log KD α1B,human α1B-adrenoceptor; [4],−5.46 ± 0.05
CC(C)OC(=O)c1cc2c(OCC(O)CNC(C)(C)C)cccc2[nH]1 (stereo not shown) [SDZ21009],Selectivity ratio α1A vs α1D,human α1A-adrenoceptor; [2],1.4 fold
same,Selectivity ratio α1A vs α1B,human α1A-adrenoceptor; [3],>17 fold
same,Log KD α1A,human α1A-adrenoceptor; [4],−5.24 ± 0.07
same,Selectivity ratio α1B vs α1D,[1],>12 fold
same,Log KD α1D,[1]; [4],−5.09 ± 0.18
same,selectivities α1B vs α1D,human α1B-adrenoceptor; [6],>12
same,Log IC50 α1B,"human α1B-adrenoceptor; top concentration inhibited some but 50% or less of specific binding, printed as log IC50",Log IC50 > −4
CCN1CCCC1CNC(=O)c1cc(S(N)(=O)=O)ccc1OC (stereo not shown) [Sulpiride],Selectivity ratio α1A vs α1D,human α1A-adrenoceptor; [2],6.9 fold
same,Selectivity ratio α1A vs α1B,human α1A-adrenoceptor; [3],>32 fold
same,selectivity α1A vs α1B,human α1A-adrenoceptor,>31
same,Kd,human α1A-adrenoceptor; [4],31600 nM
same,Kd,[1]; [5],219000 ± 5380 nM
same,Selectivity ratio α1B vs α1D,[1],>4.6 fold
same,selectivity α1B vs α1D,human α1B-adrenoceptor,>4.6
CC(CN1c2ccccc2Sc2ccccc21)N(C)C (stereo not shown) [Promethazine],Selectivity ratio α1A vs α1D,human α1A-adrenoceptor; [2],18 fold
same,Selectivity ratio α1A vs α1B,human α1A-adrenoceptor; [3],8.7 fold
same,Kd,human α1A-adrenoceptor; [4],100 nM
same,Kd,[1]; [9],1780 nM
same,Selectivity ratio α1B vs α1D,human α1B-adrenoceptor; [7],2.0 fold
same,Kd,human α1B-adrenoceptor; [4],871 nM
CC(C(O)c1ccc(O)cc1)N1CCC(Cc2ccccc2)CC1 (stereo not shown) [Ifenprodil],Selectivity ratio α1A vs α1D,human α1A-adrenoceptor; [2],2.9 fold
same,Selectivity ratio α1A vs α1B,human α1A-adrenoceptor; [3],15 fold
same,Kd,human α1A-adrenoceptor; [4],21.9 nM
same,Kd,[1]; [10],7.59 nM
same,Log KD α1D site 2,[1]; control,−6.05 ± 0.13
same,% site 1 α1D,[1]; [8],48.8 ± 4.5% site 1
same,Selectivity ratio α1B vs α1D,[1],43 fold
same,% site 1 α1D,[1]; [11],-8.12 ± 0.18 -6.05 ± 0.13 48.8 ± 4.5% site 1
same,selectivity α1B vs α1D,human α1B-adrenoceptor,43
same,Kd,human α1B-adrenoceptor; [4],324 nM
CN(CCCN1c2ccccc2CCc2ccccc21)CC(=O)c1ccc(Cl)cc1 [Lofepramine],Selectivity ratio α1A vs α1D,human α1A-adrenoceptor; [2],37 fold
same,Selectivity ratio α1A vs α1B,human α1A-adrenoceptor; [3],32 fold
same,Kd,human α1A-adrenoceptor; [4],115 nM
same,Kd,[1]; [9],4270 nM
same,Selectivity ratio α1B vs α1D,human α1B-adrenoceptor; [7],1.2 fold
same,Kd,human α1B-adrenoceptor; [4],3630 nM
CC(C)(C)NCC(O)COc1cccc2[nH]c(=O)[nH]c12 (stereo not shown) [CGP 12177],Kd,"human α1A-adrenoceptor; log KD from 3H-prazosin whole cell binding, CHO cells, mean ± s.e.mean",7240 nM
same,selectivity α1A vs 1D,human α1A-adrenoceptor,8.7
same,selectivity α1A vs α1B,human α1A-adrenoceptor,>14
same,Kd,"[1]; Log KD α1D, log KD from 3H-prazosin whole cell binding, CHO cells, mean ± s.e.mean",63100 nM
same,Log IC50 α1B,human α1B-adrenoceptor; log IC50 bound,Log IC50>-4
same,selectivity α1B vs α1D,human α1B-adrenoceptor,>1.6
CN1CCN(c2ccc(Nc3c4ccccc4nc4ccccc34)cc2)CC1 [JP1302],Log KD α1A,human α1A-adrenoceptor; [4],−6.21 ± 0.04
same,Log KD α1D,[1]; [4],−5.58 ± 0.09
same,Log KD α1B,human α1B-adrenoceptor; [4],−5.46 ± 0.02
COc1cc2nc(N3CCN(C(=O)c4ccco4)[C@H]4CCCC[C@H]43)nc(N)c2cc1OC (racemic) [Cyclazosin],Selectivity ratio α1A vs α1B,human α1A-adrenoceptor; [3],1.6 fold
same,selectivity α1A vs 1D,human α1A-adrenoceptor,9.5
same,Kd,human α1A-adrenoceptor; [4],1.29 nM
same,Kd,[1]; [10],0.135 nM
same,Kd,"[1]; affinity, subtype not given, by Table 1 reached at α1D site 1",< 0.25 nM
same,Log KD α1D site 2,[1]; control,−7.44 ± 0.10
same,% site 1 α1D,[1]; [8],56.8 ± 3.4% site 1
same,Selectivity ratio α1A vs α1D,[1],9.5 fold
same,Selectivity ratio α1B vs α1D,[1],15 fold
same,% site 1 α1D,[1]; [11],-9.87 ± 0.06 -7.44 ± 0.10 56.8 ± 3.4% site 1
same,selectivity α1B vs α1D,human α1B-adrenoceptor,15
same,Kd,human α1B-adrenoceptor; [4],2.09 nM
COc1cccc(OC)c1OCCNCC1CSc2ccccc2O1 (stereo not shown) [Benoxathian],Log KD α1A,human α1A-adrenoceptor; [4],−9.08 ± 0.05
same,Log KD α1D site 1,"[1]; control, used for selectivity",−7.91 ± 0.10
same,Log KD α1D site 2,[1]; control,−5.62 ± 0.19
same,% site 1 α1D,[1]; [8],62.5 ± 3.4% Site 1
same,% site 1 α1D,[1]; [11],-7.91 ± 0.10 -5.62 ± 0.19 62.5 ± 3.4% site 1
same,Log KD α1B,human α1B-adrenoceptor; [4],−7.32 ± 0.03
Cc1ccc(Sc2ccccc2N2CCNCC2)c(C)c1 [Vortioxetine],Selectivity ratio α1A vs α1D,human α1A-adrenoceptor; [2],7.8 fold
same,Selectivity ratio α1A vs α1B,human α1A-adrenoceptor; [3],7.9 fold
same,Kd,human α1A-adrenoceptor; [4],479 nM
same,Kd,[1]; [9],3720 nM
same,Selectivity ratio α1B vs α1D,human α1B-adrenoceptor; [7],1.0 fold
same,Kd,human α1B-adrenoceptor; [4],3800 nM
COc1ccccc1N1CCN(CCCNc2c(C)c(=O)n(C)c(=O)n2C)CC1 [5‐methyl‐urapidil],Selectivity ratio α1A vs α1B,human α1A-adrenoceptor,148 fold
same,Selectivity ratio α1A vs α1D,human α1A-adrenoceptor,417 fold
same,Log KD α1A,human α1A-adrenoceptor; [4],−8.23 ± 0.05
same,Log KD α1D,[1]; [4],−5.61 ± 0.07
same,Log KD α1B,human α1B-adrenoceptor,−6.06 ± 0.04
same,Selectivity ratio α1B vs α1D,human α1B-adrenoceptor,2.8 fold
CC(C)(C)NCC(O)COc1cccc2[nH]c(=O)[nH]c12 (stereo not shown) [CGP12177],Selectivity ratio α1A vs α1D,human α1A-adrenoceptor; [2],8.7 fold
same,Selectivity ratio α1A vs α1B,human α1A-adrenoceptor; [3],>14 fold
same,Kd,human α1A-adrenoceptor; [4],7240 nM
same,Kd,[1]; [9],63100 nM
same,Selectivity ratio α1B vs α1D,[1],>1.6 fold
same,IC50,human α1B-adrenoceptor; read-out: Log IC50 α1B (converted),> 100000 nM
